The source of these data is patent US12258327B2, “5-membered heteroaryl-containing aminopyridine compounds as EGFR inhibitors” (YUHAN CORPORATION, priority 2021, dated 2025).

Where two headings read alike, the source gives them in different places.

In one test the target is EGFR L858R/T790M/C797S (Homo sapiens, UniProt P00533, C797S/L858R/T790M). Description: Biochemical EGFR kinase assay (Lance Ultra TR-FRET), triple mutant L858R/T790M/C797S. The essentials:
(§1)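 In this biochemical assay, phosphorylation after a one-hour room-temperature reaction was detected with europium-labelled anti-phosphopeptide antibody at 2 nM final concentration.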
A general note: Time-resolved FRET reads energy transfer from a long-lived donor to a nearby acceptor.

The target of a further test is EGFR del19/C797S (Homo sapiens, UniProt P00533, C797S/DEL746-750). Description: Biochemical EGFR kinase assay (Lance Ultra TR-FRET), double mutant del19/C797S. The essentials: as §1
A further test deals with EGFR del19/T790M/C797S (Homo sapiens, UniProt P00533, C797S/DEL746-750/T790M). Description: Biochemical EGFR kinase assay (Lance Ultra TR-FRET), triple mutant del19/T790M/C797S. Put shortly:
as §1

Another test concerns the target EGFR wildtype (WT) (Homo sapiens, UniProt P00533). Description: Biochemical EGFR kinase assay (Lance Ultra TR-FRET), wildtype. Put shortly:
as §1

The target in the next test is EGFR L858R/C797S (Homo sapiens, UniProt P00533, C797S/L858R). Description: Biochemical EGFR kinase assay (Lance Ultra TR-FRET), double mutant L858R/C797S. The essentials: as §1
The mark [1] stands for this setting: Km ATP, read-out: IC50 L858R/T790M/C797S (nM) Km ATP.
Setting [2] is: Km ATP, read-out: IC50 del19/C797S (nM) Km ATP.
The mark [3] stands for this setting: Km ATP, read-out: IC50 del19/T790M/C797S (nM) Km ATP.
Where [4] appears, read: Km ATP, read-out: IC50 WT (nM) Km ATP.
Where [5] appears, read: Km ATP, read-out: IC50 L858R/C797S (nM) Km ATP.
Setting [6] is: IC50 L858R/T790M/C797S (nM) 100 μM ATP, 100 μM ATP.
Where [7] appears, read: IC50 del19/C797S (nM) 100 μM ATP, 100 μM ATP.
Setting [8] is: IC50 del19/T790M/C797S (nM) 100 μM ATP, 100 μM ATP.
Where [9] appears, read: IC50 WT (nM) 100 μM ATP, 100 μM ATP.
[10] abbreviates: IC50 L858R/C797S (nM) 100 μM ATP, 100 μM ATP.

Chain of EGFR del19/T790M/C797S (P00533 with tags, fused parts or gaps DEL746-750/T790M/C797S): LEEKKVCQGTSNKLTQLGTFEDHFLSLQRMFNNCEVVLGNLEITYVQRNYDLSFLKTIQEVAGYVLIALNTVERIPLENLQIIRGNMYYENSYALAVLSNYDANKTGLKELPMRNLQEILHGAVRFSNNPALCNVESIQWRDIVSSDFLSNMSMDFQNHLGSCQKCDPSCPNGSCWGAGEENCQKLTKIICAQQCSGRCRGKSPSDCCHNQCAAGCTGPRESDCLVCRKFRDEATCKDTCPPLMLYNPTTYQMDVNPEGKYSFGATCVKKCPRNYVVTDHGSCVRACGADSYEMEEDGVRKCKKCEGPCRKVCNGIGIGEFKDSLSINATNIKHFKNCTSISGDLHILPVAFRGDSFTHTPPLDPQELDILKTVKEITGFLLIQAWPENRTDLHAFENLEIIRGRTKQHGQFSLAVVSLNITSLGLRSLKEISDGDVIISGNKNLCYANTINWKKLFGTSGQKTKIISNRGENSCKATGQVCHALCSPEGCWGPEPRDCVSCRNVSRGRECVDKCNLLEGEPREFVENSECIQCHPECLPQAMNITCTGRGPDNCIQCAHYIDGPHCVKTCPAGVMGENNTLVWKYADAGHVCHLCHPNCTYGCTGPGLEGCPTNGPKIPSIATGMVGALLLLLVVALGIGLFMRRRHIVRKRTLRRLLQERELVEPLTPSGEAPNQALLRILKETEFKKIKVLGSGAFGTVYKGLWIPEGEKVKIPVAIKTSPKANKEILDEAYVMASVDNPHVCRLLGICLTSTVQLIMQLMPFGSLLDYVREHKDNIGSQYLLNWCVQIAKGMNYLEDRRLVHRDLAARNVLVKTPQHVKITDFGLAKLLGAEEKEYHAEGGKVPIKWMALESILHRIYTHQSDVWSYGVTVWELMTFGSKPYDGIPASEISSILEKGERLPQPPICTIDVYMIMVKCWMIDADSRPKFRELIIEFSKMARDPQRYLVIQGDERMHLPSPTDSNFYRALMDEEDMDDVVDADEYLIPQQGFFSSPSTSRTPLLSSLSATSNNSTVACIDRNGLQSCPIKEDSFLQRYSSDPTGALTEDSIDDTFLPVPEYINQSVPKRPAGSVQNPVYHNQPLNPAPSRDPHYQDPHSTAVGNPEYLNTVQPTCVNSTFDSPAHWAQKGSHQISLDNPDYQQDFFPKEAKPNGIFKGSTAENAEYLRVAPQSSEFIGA
Chain of EGFR del19/C797S (P00533 with tags, fused parts or gaps DEL746-750/C797S): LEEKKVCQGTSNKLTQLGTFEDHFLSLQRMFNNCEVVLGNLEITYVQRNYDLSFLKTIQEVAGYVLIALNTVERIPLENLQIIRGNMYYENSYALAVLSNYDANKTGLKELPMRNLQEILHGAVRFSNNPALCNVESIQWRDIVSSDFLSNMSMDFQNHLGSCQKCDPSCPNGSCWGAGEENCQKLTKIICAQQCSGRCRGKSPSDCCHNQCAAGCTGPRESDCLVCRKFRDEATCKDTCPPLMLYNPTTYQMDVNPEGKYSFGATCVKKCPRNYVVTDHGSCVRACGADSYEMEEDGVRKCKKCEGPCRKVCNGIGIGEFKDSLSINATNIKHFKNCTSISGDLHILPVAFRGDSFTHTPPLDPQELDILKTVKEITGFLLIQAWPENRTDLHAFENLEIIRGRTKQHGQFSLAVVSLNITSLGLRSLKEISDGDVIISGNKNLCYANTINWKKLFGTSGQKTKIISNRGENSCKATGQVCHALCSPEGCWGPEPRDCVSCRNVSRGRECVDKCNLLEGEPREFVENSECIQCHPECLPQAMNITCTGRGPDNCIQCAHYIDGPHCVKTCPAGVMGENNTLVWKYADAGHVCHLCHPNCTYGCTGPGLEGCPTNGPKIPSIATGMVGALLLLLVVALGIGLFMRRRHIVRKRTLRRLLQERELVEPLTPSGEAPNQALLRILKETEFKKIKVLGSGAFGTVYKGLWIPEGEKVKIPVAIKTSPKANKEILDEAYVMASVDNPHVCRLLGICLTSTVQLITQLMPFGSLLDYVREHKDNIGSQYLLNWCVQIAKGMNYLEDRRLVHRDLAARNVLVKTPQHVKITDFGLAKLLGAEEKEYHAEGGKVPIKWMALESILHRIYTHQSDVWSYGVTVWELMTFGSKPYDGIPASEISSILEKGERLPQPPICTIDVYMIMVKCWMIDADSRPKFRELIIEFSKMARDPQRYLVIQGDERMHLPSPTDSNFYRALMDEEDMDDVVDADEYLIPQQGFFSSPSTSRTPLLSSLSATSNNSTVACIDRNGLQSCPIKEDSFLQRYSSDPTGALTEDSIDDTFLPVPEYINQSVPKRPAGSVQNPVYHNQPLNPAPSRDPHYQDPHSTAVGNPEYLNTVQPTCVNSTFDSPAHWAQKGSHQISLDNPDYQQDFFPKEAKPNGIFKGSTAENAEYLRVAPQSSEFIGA
Chain of EGFR wildtype (WT) (P00533 25-1210): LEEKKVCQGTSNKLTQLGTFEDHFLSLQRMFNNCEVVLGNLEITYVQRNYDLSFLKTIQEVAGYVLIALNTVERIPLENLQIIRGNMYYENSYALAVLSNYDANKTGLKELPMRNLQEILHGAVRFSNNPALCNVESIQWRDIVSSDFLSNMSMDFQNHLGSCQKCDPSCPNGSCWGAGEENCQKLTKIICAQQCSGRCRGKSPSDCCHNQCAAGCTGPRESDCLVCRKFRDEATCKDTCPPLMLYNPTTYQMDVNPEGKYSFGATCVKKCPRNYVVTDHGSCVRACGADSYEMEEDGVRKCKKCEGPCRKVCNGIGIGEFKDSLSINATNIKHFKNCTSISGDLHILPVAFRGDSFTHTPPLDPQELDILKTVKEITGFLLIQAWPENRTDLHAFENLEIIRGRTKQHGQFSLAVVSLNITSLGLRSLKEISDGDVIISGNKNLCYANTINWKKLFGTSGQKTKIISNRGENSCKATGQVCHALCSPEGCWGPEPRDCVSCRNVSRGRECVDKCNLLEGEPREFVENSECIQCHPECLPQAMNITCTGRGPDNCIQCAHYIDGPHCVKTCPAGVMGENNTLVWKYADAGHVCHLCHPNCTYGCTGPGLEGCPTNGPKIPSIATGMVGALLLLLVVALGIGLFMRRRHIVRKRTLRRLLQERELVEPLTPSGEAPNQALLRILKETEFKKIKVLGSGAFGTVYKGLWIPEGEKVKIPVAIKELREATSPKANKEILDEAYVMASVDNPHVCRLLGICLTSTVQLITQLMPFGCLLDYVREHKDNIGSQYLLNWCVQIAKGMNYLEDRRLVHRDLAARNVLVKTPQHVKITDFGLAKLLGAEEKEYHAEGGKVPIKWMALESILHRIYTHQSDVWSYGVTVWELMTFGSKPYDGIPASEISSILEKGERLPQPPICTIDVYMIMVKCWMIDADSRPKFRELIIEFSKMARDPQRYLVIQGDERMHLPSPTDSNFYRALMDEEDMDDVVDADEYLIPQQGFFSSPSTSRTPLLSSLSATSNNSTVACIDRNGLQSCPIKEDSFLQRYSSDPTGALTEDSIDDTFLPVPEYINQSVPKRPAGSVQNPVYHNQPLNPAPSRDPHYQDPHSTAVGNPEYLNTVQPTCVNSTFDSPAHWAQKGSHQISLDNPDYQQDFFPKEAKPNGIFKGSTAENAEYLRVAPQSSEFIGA
Chain of EGFR L858R/T790M/C797S (P00533 25-1210 T790M/C797S/L858R): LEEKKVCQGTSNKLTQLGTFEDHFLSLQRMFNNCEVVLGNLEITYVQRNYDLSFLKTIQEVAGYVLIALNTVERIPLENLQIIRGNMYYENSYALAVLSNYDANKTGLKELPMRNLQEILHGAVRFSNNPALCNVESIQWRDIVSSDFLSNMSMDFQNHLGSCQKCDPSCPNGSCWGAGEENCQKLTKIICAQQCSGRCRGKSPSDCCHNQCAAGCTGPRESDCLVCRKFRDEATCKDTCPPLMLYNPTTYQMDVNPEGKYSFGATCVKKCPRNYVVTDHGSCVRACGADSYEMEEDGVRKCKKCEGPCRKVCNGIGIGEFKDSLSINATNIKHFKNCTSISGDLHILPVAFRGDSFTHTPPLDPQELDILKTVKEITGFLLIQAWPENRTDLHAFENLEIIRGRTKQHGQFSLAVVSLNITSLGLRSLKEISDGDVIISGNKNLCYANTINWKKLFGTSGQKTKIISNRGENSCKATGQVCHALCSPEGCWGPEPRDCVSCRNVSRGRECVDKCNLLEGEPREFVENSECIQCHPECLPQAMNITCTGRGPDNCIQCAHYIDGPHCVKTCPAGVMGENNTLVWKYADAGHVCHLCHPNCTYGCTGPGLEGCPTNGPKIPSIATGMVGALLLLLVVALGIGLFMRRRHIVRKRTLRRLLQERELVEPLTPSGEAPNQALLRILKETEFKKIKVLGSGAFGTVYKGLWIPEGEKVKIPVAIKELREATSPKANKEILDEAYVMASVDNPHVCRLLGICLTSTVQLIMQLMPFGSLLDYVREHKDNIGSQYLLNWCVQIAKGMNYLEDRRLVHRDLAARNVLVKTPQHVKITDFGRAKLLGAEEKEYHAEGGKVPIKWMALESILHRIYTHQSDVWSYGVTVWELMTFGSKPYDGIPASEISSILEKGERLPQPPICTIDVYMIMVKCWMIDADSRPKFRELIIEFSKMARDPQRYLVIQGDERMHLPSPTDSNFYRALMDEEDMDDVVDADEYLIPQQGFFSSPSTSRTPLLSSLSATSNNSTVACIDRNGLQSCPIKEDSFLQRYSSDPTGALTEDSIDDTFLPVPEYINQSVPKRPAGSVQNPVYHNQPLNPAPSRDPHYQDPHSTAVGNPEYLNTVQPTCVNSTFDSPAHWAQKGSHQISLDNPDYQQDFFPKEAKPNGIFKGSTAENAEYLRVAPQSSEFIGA

For `CN(C)C[C@H]1C[C@H](CNc2cc(Nc3ccnc(-c4cnn(S(=O)(=O)C5CC5)c4)n3)ncc2-c2ccn(C)n2)C1` [Example 239, N^2-(2-(1-(Cyclopropylsulfonyl)-1H-pyrazol-4-yl)pyrimidin-4-yl)-N^4-(((1r,3r)-3-((dimethylamino)methyl)cyclobutyl)methyl)-5-(1-methyl-1H-pyrazol-3-yl)pyridine-2,4-diamine], the IC50 on EGFR L858R/T790M/C797S (setting [1]) stood at 0.1 nM; at EGFR del19/C797S (setting [2]), 4.6 nM; on EGFR del19/T790M/C797S (setting [3]) it was 0.3 nM; at EGFR wildtype (WT) (setting [4]), 10.1 nM; on EGFR L858R/C797S (setting [5]) it was 3.6 nM.
For `Cn1ccc(-c2cnc(Nc3ccnc(-c4cnn(S(=O)(=O)C5CC5)c4)n3)cc2N[C@H]2CC[C@](O)(C(F)F)CC2)n1` [Example 231, (1s,4s)-4-((2-((2-(1-(Cyclopropylsulfonyl)-1H-pyrazol-4-yl)pyrimidin-4-yl)amino)-5-(1-methyl-1H-pyrazol-3-yl)pyridin-4-yl)amino)-1-(difluoromethyl)cyclohexan-1-ol], the IC50 against EGFR L858R/T790M/C797S (setting [6]) came out at 0.7 nM; at EGFR L858R/T790M/C797S (setting [1]), 0.3 nM; against EGFR del19/C797S (setting [7]) it was 2 nM; on EGFR del19/C797S (setting [2]), 2.4 nM; against EGFR del19/T790M/C797S (setting [8]) it was 0.5 nM; at EGFR del19/T790M/C797S (setting [3]), 0.3 nM. The IC50 was more than 10000 nM on EGFR wildtype (WT) (setting [9]), 37.3 nM on EGFR wildtype (WT) (setting [4]), 11.5 nM against EGFR L858R/C797S (setting [10]) and 3.1 nM at EGFR L858R/C797S (setting [5]).
Turning to `COc1ccc(-c2nccc(Nc3cc(N[C@H]4CC[C@@](C)(O)CC4)c(-c4ccn(C(F)F)n4)cn3)n2)c(F)n1` [Example 166, (1s,4s)-4-((5-(1-(Difluoromethyl)-1H-pyrazol-3-yl)-2-((2-(2-fluoro-6-methoxypyridin-3-yl)pyrimidin-4-yl)amino)pyridin-4-yl)amino)-1-methylcyclohexan-1-ol], the IC50 worked out at 3.6 nM at EGFR L858R/T790M/C797S (setting [1]); 737 nM at EGFR del19/C797S (setting [2]); 7.2 nM on EGFR del19/T790M/C797S (setting [3]); 503 nM on EGFR wildtype (WT) (setting [4]); 198 nM on EGFR L858R/C797S (setting [5]).
With `C[C@]1(O)CC[C@@H](Nc2cc(Nc3ccnc(-c4cnn(S(=O)(=O)C5CC5)c4)c3)ncc2-c2ccn(C(F)F)n2)CC1` [Example 354, (1s,4s)-4-((2-((2-(1-(Cyclopropylsulfonyl)-1H-pyrazol-4-yl)pyridin-4-yl)amino)-5-(1-(difluoromethyl)-1H-pyrazol-3-yl)pyridin-4-yl)amino)-1-methylcyclohexan-1-ol], the IC50 was 13.1 nM against EGFR L858R/T790M/C797S (IC50 L858R/T790M/C797S, 100 μM ATP); 135 nM against EGFR del19/C797S (IC50 del19/C797S, 100 μM ATP); 2 nM against EGFR del19/T790M/C797S (IC50 del19/T790M/C797S, 100 μM ATP); more than 10000 nM against EGFR wildtype (WT) (IC50 WT, 100 μM ATP); 2540 nM on EGFR L858R/C797S (IC50 L858R/C797S, 100 μM ATP).
With `CN(C)S(=O)(=O)n1cc(-c2nccc(Nc3cc(N[C@H]4CC[C@@](C)(O)CC4)c(-c4cc(C(F)(F)F)n(C)n4)cn3)n2)cn1` [Example 330, 4-(4-((4-(((1s,4s)-4-Hydroxy-4-methylcyclohexyl)amino)-5-(1-methyl-5-(trifluoromethyl)-1H-pyrazol-3-yl)pyridin-2-yl)amino)pyrimidin-2-yl)-N,N-dimethyl-1H-pyrazole-1-sulfonamide], the IC50 on EGFR L858R/T790M/C797S (setting [6]) was 3.9 nM; at EGFR L858R/T790M/C797S (setting [1]), 1.1 nM; on EGFR del19/C797S (setting [7]), 35.1 nM; at EGFR del19/C797S (setting [2]) it was 15.7 nM; on EGFR del19/T790M/C797S (setting [8]) it was 2.2 nM; on EGFR del19/T790M/C797S (setting [3]), 2.6 nM. For the same compound, the IC50 against EGFR wildtype (WT) (setting [9]) is more than 10000 nM; on EGFR wildtype (WT) (setting [4]) it was 65.3 nM; against EGFR L858R/C797S (setting [10]) it was 63.3 nM; at EGFR L858R/C797S (setting [5]) it was 1.6 nM.
As for `O=S(=O)(C1CC1)n1cc(-c2nccc(Nc3cc(NC[C@H]4CC[C@@H](O)C4)c(-c4ccn(C(F)F)n4)cn3)n2)cn1` [Example 119, (1R,3S)-3-(((2-((2-(1-(Cyclopropylsulfonyl)-1H-pyrazol-4-yl)pyrimidin-4-yl)amino)-5-(1-(difluoromethyl)-1H-pyrazol-3-yl)pyridin-4-yl)amino)methyl)cyclopentan-1-ol], the IC50 is 0.6 nM against EGFR L858R/T790M/C797S (setting [6]); 0.1 nM on EGFR L858R/T790M/C797S (setting [1]); 0.5 nM at EGFR del19/C797S (setting [7]); 0.5 nM at EGFR del19/C797S (setting [2]); 0.4 nM against EGFR del19/T790M/C797S (setting [8]); 0.4 nM on EGFR del19/T790M/C797S (setting [3]). The IC50 on EGFR wildtype (WT) (setting [9]) was more than 10000 nM; at EGFR wildtype (WT) (setting [4]) it was 6.1 nM; against EGFR L858R/C797S (setting [10]), 15.1 nM; on EGFR L858R/C797S (setting [5]), 0.4 nM.
For `Cn1ccc(-c2cnc(Nc3ccnc(-c4cnn(S(=O)(=O)C5CC5)c4)n3)cc2NCC2CCC(C(F)F)CC2)n1` (stereo not shown) [Example 152, N^2-(2-(1-(Cyclopropylsulfonyl)-1H-pyrazol-4-yl)pyrimidin-4-yl)-N^4-((4-(difluoromethyl)cyclohexyl)methyl)-5-(1-methyl-1H-pyrazol-3-yl)pyridine-2,4-diamine], the IC50 at EGFR L858R/T790M/C797S (setting [1]) came to 3.5 nM; at EGFR del19/C797S (setting [2]), 118 nM; at EGFR del19/T790M/C797S (setting [3]), 8.5 nM; on EGFR wildtype (WT) (setting [4]) it was 85.1 nM; at EGFR L858R/C797S (setting [5]), 16.1 nM.
Consider `O=S(=O)(C1CC1)n1cc(-c2nccc(Nc3cc(NC4CCC(O)C4)c(-c4ccn(C(F)F)n4)cn3)n2)cn1` (stereo not shown) [Example 15, 3-((2-((2-(1-(Cyclopropylsulfonyl)-1H-pyrazol-4-yl)pyrimidin-4-yl)amino)-5-(1-(difluoromethyl)-1H-pyrazol-3-yl)pyridin-4-yl)amino)cyclopentan-1-ol], for which the IC50 at EGFR L858R/T790M/C797S (setting [6]) was 0.9 nM; against EGFR del19/C797S (setting [7]), 3.2 nM; against EGFR del19/T790M/C797S (setting [8]), 0.6 nM; on EGFR wildtype (WT) (setting [9]), more than 10000 nM; on EGFR L858R/C797S (setting [10]), 9.7 nM.
`OCC[C@H]1CC[C@@H](Nc2cc(Nc3ccnc(-c4cnn(CC(F)F)c4)n3)ncc2-c2ccn(C(F)F)n2)CC1` [Example 146, 2-((1s,4s)-4-((2-((2-(1-(2,2-Difluoroethyl)-1H-pyrazol-4-yl)pyrimidin-4-yl)amino)-5-(1-(difluoromethyl)-1H-pyrazol-3-yl)pyridin-4-yl)amino)cyclohexyl)ethan-1-ol]: the IC50 on EGFR L858R/T790M/C797S (setting [1]) stood at 0.4 nM; on EGFR del19/C797S (setting [2]), 10.8 nM; on EGFR del19/T790M/C797S (setting [3]) it was 1.1 nM; at EGFR wildtype (WT) (setting [4]), 19.9 nM; at EGFR L858R/C797S (setting [5]), 4.7 nM.
Turning to `O=S(=O)(C1CC1)n1cc(-c2cc(Nc3ncc(-c4ccn(CCC(F)(F)F)n4)c(N[C@H]4CC[C@@H](F)CC4)n3)ccn2)cn1` [Example 367, N^2-(2-(1-(Cyclopropylsulfonyl)-1H-pyrazol-4-yl)pyridin-4-yl)-N^4-((1s,4s)-4-fluorocyclohexyl)-5-(1-(3,3,3-trifluoropropyl)-1H-pyrazol-3-yl)pyrimidine-2,4-diamine], the IC50 at EGFR L858R/T790M/C797S (Km ATP, read-out: IC50 L858R/T790M/C797S, Km ATP) was 7.2 nM; on EGFR del19/C797S (Km ATP, read-out: IC50 del19/C797S, Km ATP) it was 391 nM; at EGFR del19/T790M/C797S (Km ATP, read-out: IC50 del19/T790M/C797S, Km ATP), 17.1 nM; at EGFR wildtype (WT) (Km ATP, read-out: IC50 WT, Km ATP) it was 5000 nM; at EGFR L858R/C797S (Km ATP, read-out: IC50 L858R/C797S, Km ATP), 251 nM.
For `O=C1NCCCC1Nc1cc(Nc2ccnc(-c3cnn(S(=O)(=O)C4CC4)c3)n2)ncc1-c1ccn(C(F)F)n1` (stereo not shown) [Example 38, 3-((2-((2-(1-(Cyclopropylsulfonyl)-1H-pyrazol-4-yl)pyrimidin-4-yl)amino)-5-(1-(difluoromethyl)-1H-pyrazol-3-yl)pyridin-4-yl)amino)piperidin-2-one], the IC50 came to 2.5 nM against EGFR L858R/T790M/C797S (setting [6]); 0.3 nM on EGFR L858R/T790M/C797S (setting [1]); 24.8 nM against EGFR del19/C797S (setting [7]); 23.7 nM at EGFR del19/C797S (setting [2]); 0.5 nM against EGFR del19/T790M/C797S (setting [8]); 0.5 nM at EGFR del19/T790M/C797S (setting [3]). The IC50 was more than 10000 nM against EGFR wildtype (WT) (setting [9]), 60.7 nM at EGFR wildtype (WT) (setting [4]), 182 nM on EGFR L858R/C797S (setting [10]) and 9.1 nM at EGFR L858R/C797S (setting [5]).
For the compound `O=S(=O)(C1CC1)n1cc(-c2nccc(Nc3cc(NCC4CCCC(O)C4)c(-c4ccn(C(F)F)n4)cn3)n2)cn1` (stereo not shown) [Example 32, 3-(((2-((2-(1-(Cyclopropylsulfonyl)-1H-pyrazol-4-yl)pyrimidin-4-yl)amino)-5-(1-(difluoromethyl)-1H-pyrazol-3-yl)pyridin-4-yl)amino)methyl)cyclohexan-1-ol], the IC50 stood at 2.5 nM against EGFR L858R/T790M/C797S (setting [6]); 0.2 nM at EGFR L858R/T790M/C797S (setting [1]); 2.5 nM at EGFR del19/C797S (setting [7]); 1 nM on EGFR del19/C797S (setting [2]); 1.6 nM against EGFR del19/T790M/C797S (setting [8]); 0.5 nM at EGFR del19/T790M/C797S (setting [3]). Moreover, the IC50 is more than 10000 nM against EGFR wildtype (WT) (setting [9]), 18.5 nM at EGFR wildtype (WT) (setting [4]), 45.2 nM against EGFR L858R/C797S (setting [10]) and 1.9 nM at EGFR L858R/C797S (setting [5]).
